Each structure is given as a SMILES string.

Broadly, the Papp is the rate of passage across a membrane or cell layer, normalised by area and donor concentration. Higher therefore signals ready permeation.

This data set in a line: passive permeability, PAMPA, ADME assay (AID 1508612). The note with it: pH 7.4, 30.0 min, 50.0 µM. For orientation: In PAMPA a lipid-coated filter parts donor from acceptor wells.

The molecule `Cc1ccc(S(=O)(=O)Nc2cc(Cl)c(Cl)cc2C(=O)Nc2nc(-c3ccccc3)cs2)cc1` had a Papp of 5 ×10⁻⁶ cm/s.
Under `CC(=O)Nc1ccc(S(=O)(=O)Nc2nccs2)cc1` stands < 1 ×10⁻⁶ cm/s; under `CC(C)c1ccccc1-c1nc2c(c(NCc3ccc(-c4cccnc4)cc3)n1)CNC2`, 478 ×10⁻⁶ cm/s.
Under `Cc1ccc(-n2c(C)cc(-c3nnc4n3CCCCC4)c2C)cc1` stands > 1000 ×10⁻⁶ cm/s; under `CC1=C(C(=O)Nc2ccccc2)C(c2ccc[nH]2)n2ncnc2N1` (stereo unspecified), 80 ×10⁻⁶ cm/s; under `COc1ccccc1Nc1ccnc(N2CCN(C(=O)c3ccccc3Cl)CC2)n1`, 173 ×10⁻⁶ cm/s.
`Cc1cccc(-n2cnc3cc(C(=O)N4CCCC(C(F)(F)F)C4)ccc32)c1` (stereo unspecified): the Papp is > 1000 ×10⁻⁶ cm/s.
For `CCN(CC)CCNC(=O)C1CCN(c2nn3cc(-c4ccc(F)cc4)nc3s2)CC1`, the Papp was > 1000 ×10⁻⁶ cm/s.
Molecule `CN(C)c1ccc(-c2cc[nH]c(=O)c2N)cc1` gave a Papp of 116 ×10⁻⁶ cm/s.
For `Cc1cccc(-c2[nH]c(C(C)(C)C)nc2-c2ccc3nccnc3c2)n1`, the Papp came to 512 ×10⁻⁶ cm/s.
Under `CCCCn1cnc2cc(NC(=O)c3cc(OC)c(OC)c(OC)c3)ccc21` stands 693 ×10⁻⁶ cm/s; under `COc1cccc(CNC(=O)c2c(OC)cc(=O)n3c2CCN(C(=O)c2ccc(C)cc2C)CC3)c1`, 93.9 ×10⁻⁶ cm/s; under `CC(C)c1ccc(S(=O)(=O)c2cnc(SCC(=O)Nc3ccc4c(c3)OCCO4)[nH]c2=O)cc1`, 1.84 ×10⁻⁶ cm/s.
Molecule `Oc1cccc2nc3ccccc3nc12` yielded a Papp of 513 ×10⁻⁶ cm/s.
For the molecule `Cc1ccc(-c2cc(C(=O)Nc3cccc(S(=O)(=O)Nc4nccs4)c3)c3ccccc3n2)cc1C`, the Papp worked out at 22.3 ×10⁻⁶ cm/s. This Papp is about 23-fold lower than that of the molecule before.
`Cc1ccc(S(=O)(=O)Nc2cncc(C(=O)Nc3nc(-c4ccccc4)cs3)c2)cc1` showed a Papp of 71.2 ×10⁻⁶ cm/s.
Under `Fc1cc(Nc2nc(-c3ccncc3)nc3ccccc23)ccc1N1CCCC1` stands 110 ×10⁻⁶ cm/s; under `COc1ccccc1-c1nc(NCc2cnc(C)cn2)c2ccccc2n1`, > 1000 ×10⁻⁶ cm/s; under `Cc1ccc(CCNC(=O)C2CCCN(C(=O)c3cc4sccc4n3C)C2)cc1` (stereo unspecified), > 1000 ×10⁻⁶ cm/s.
The result for `NC(=O)C1CCN(c2nc(-c3ccc(Cl)cc3)cs2)CC1` reads 191 ×10⁻⁶ cm/s; that for `COc1ccc(CNc2ccc(S(=O)(=O)Nc3nccs3)cc2)cc1O`, 19.3 ×10⁻⁶ cm/s.
The result for `CNS(=O)(=O)c1cc(-c2nn3c(C)nnc3c3ccccc23)ccc1C` reads 146 ×10⁻⁶ cm/s.
The molecule `COc1ccc(CCn2c(N)cc(=O)[nH]c2=S)cc1OC` returned a Papp of 7.34 ×10⁻⁶ cm/s.
Molecule `O=C(Nc1nc(-c2ccccc2)cs1)c1ccncc1NS(=O)(=O)c1cccs1` returned a Papp of 83.2 ×10⁻⁶ cm/s.
The result for `COc1cccc(CNc2ccc(S(=O)(=O)Nc3ncccn3)cc2)c1O` reads 31.5 ×10⁻⁶ cm/s; that for `CCCOC(c1cc2nccc(C(=O)O)c2[nH]1)c1ccccc1Cl` (stereo unspecified), 12.9 ×10⁻⁶ cm/s; that for `C[C@@]1(C(=O)Nc2ccc(F)nc2)CCCN1c1nc(Nc2cc(C3CC3)[nH]n2)c2cccn2n1`, 780 ×10⁻⁶ cm/s.
Turning to `COCCNC(=O)c1ccc(-c2ccc(N3CCCCC3)nc2)cc1`, the Papp is > 1000 ×10⁻⁶ cm/s.
Turning to `O=C(NCc1cccc(C(F)(F)F)c1)c1ccc(CN2CCCCC2)cc1`, the apparent permeability coefficient (Papp) was > 1000 ×10⁻⁶ cm/s.
The result for `COc1cc(N2CCC(N3CCN(C)CC3)CC2)ccc1Nc1ncc(Cl)c(Nc2ccccc2P(C)(C)=O)n1` reads 266 ×10⁻⁶ cm/s.
As for `CCCN1CNc2c(c(=O)[nH]c(=S)n2CCc2ccc(OC)c(OC)c2)C1`, the Papp stood at 138 ×10⁻⁶ cm/s.
In turn, `CN(C)c1cccc(-c2cnc(N3CCC(c4ncc[nH]4)CC3)s2)c1` had a Papp of 955 ×10⁻⁶ cm/s.
In turn, `CS(=O)(=O)c1ccc(-c2cnc(NCc3ccco3)n3cnnc23)cc1` gave a Papp of 16.7 ×10⁻⁶ cm/s.
For `Cc1ccccc1C(=O)Nc1nc2c(s1)CC(C(C)(C)C)CC2` (stereo unspecified), the Papp worked out at 257 ×10⁻⁶ cm/s.
In turn, `Fc1cc(Nc2nc(-c3ccncc3)nc3ccccc23)ccc1OC(F)(F)F` gave a Papp of 552 ×10⁻⁶ cm/s.
Under `CSc1ccc(C(=O)c2[nH]c(=O)[nH]c2C)cc1` stands 28.7 ×10⁻⁶ cm/s; under `CCOc1ccc(C2c3c(oc4ccc(C)cc4c3=O)C(=O)N2CCCN(C)C)cc1` (stereo unspecified), 516 ×10⁻⁶ cm/s; under `CCOc1cc2c(cc1OCC)CN(C(=O)c1cc3sccc3n1Cc1ccccc1)CC2`, > 1000 ×10⁻⁶ cm/s.
Under `COc1ccccc1Nc1cnc2ccc(-c3ccc(OC)c(OC)c3)nn12` stands 397 ×10⁻⁶ cm/s.
`O=C(NCc1ccco1)c1nc2nc(-c3cccs3)cc(C(F)(F)F)n2n1` registered a Papp of 257 ×10⁻⁶ cm/s. Against the preceding molecule, the Papp is about 1.5-fold lower.
Under `CCc1ccc(NC(=O)c2[nH]c(C)c(C(C)=O)c2C)cc1S(=O)(=O)Nc1ccc(C#N)cc1` stands 48.1 ×10⁻⁶ cm/s.
As to `Fc1cc(Nc2nc(-c3ccncc3)nc3ccccc23)ccc1-c1cn[nH]c1`, the Papp is 36.1 ×10⁻⁶ cm/s.
On to `COc1cc(-c2cn(C)c(=O)c3cnccc23)c(OC)cc1CN(C)C`, for which the Papp worked out at 28.9 ×10⁻⁶ cm/s.
`COc1cc2c(C(=O)N3CCN(c4cccc(C(F)(F)F)c4)CC3)cn(CC(C)C)c(=O)c2cc1OC`: the apparent permeability coefficient (Papp) was > 1000 ×10⁻⁶ cm/s.
The result for `Cc1cnc(-c2ccccc2C(C)(C)C)nc1NCc1ccc(-n2ccnn2)cc1` reads > 1000 ×10⁻⁶ cm/s.
For the molecule `O=c1c2ccccc2nc(/C=C/c2cccnc2)n1Cc1ccccc1`, the Papp is > 1000 ×10⁻⁶ cm/s.

Values taken from PubChem BioAssay AID1508612.
